From PubChem BioAssay (NCI)
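Exposure lasted 48 hours, with cells grown in 96-well plates and compounds tested at five concentrations. GI50 is the concentration that inhibits growth by half. TGI is the concentration that stops growth completely.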

Legend:
Assay in all cases: inhibition of tumour cell growth, NCI panel, 48 h
[1] = system: COLO 205 colon
[2] = system: IGROV1 ovarian
[3] = system: KM12 colon
[4] = system: LOX IMVI melanoma
[5] = system: NCI-H23 lung
[6] = system: SF-268 CNS
[7] = system: SF-295 CNS
[8] = system: SN12C renal
[9] = system: U251 CNS
[10] = system: UACC-257 melanoma
[11] = system: UACC-62 melanoma

Structure (SMILES) | TGI [1] | TGI [2] | TGI [3] | TGI [4] | TGI [5] | TGI [6] | TGI [7] | TGI [8] | TGI [9] | TGI [10] | TGI [11] | GI50 [1] | GI50 [2] | GI50 [5] | GI50 [6] | GI50 [7] | GI50 [8] | GI50 [9] | GI50 [10] | GI50 [11]
O=C(O)CC1(CC(=O)O)Nc2ccccc2SC1=O | > 100 µM | > 100 µM | > 100 µM | > 100 µM | > 100 µM | > 100 µM | > 100 µM | > 100 µM | > 100 µM | > 100 µM | > 100 µM |  |  |  |  |  |  |  |  | 
CC(CCC(=O)O)C1CCC2C3C(O)CC4CC(O)CCC4(C)C3CC(O)C12C (stereo not drawn) | > 100 µM | > 100 µM | > 100 µM | > 100 µM | > 100 µM | > 100 µM | > 100 µM | > 100 µM | > 100 µM | > 100 µM | > 100 µM |  |  |  |  |  |  |  |  | 
C[C@]12CCc3sc(Nc4ccc(O)cc4)nc3C1=CC[C@@H]1[C@@H]2CC[C@]2(C)C(=O)CC[C@@H]12 | 3.9 µM | 5.02 µM |  |  | > 100 µM | > 100 µM | 35.9 µM | > 100 µM | 21.9 µM | 4.62 µM | 4.02 µM | 2 µM | 1.99 µM | 3.96 µM | 3.37 µM | 5.26 µM | 2.91 µM | 3.06 µM | 1.86 µM | 1.76 µM
CN1CCN(c2cc(-c3cc4ccccc4o3)oc(=O)c2C#N)CC1 | > 100 µM | > 100 µM | > 100 µM | > 100 µM | > 100 µM | > 100 µM | > 100 µM | > 100 µM | > 100 µM | > 100 µM |  |  |  |  |  |  |  |  |  | 
O=C(NN1C(=O)CSC1c1ccc(C(F)(F)F)cc1)c1ccncc1 (stereo not drawn) |  | > 100 µM | > 100 µM | > 100 µM | > 100 µM | > 100 µM | > 100 µM | > 100 µM | > 100 µM | > 100 µM | > 100 µM |  |  |  |  |  |  |  |  | 
CCSc1nc(=[N+]2CCCC2)ss1 | > 49.3 µM | > 90 µM | > 100 µM | 55.2 µM | > 79.9 µM | > 100 µM | > 100 µM | > 100 µM | > 100 µM | > 100 µM | 23.9 µM |  |  |  |  |  |  |  |  | 
COc1ccc(-c2c3c(nc4nc(SC)nc(SC)c24)CCCC3)cc1OC | > 100 µM | > 100 µM | > 100 µM | > 100 µM | > 100 µM | > 100 µM | > 100 µM | > 100 µM | > 100 µM | > 100 µM | > 100 µM |  |  |  |  |  |  |  |  | 
CCc1nnc(-c2nsc3ccccc23)s1 | > 100 µM | > 100 µM | > 100 µM | > 100 µM | > 100 µM | > 100 µM |  | > 100 µM | > 100 µM | > 100 µM | > 100 µM |  |  |  |  |  |  |  |  | 
Cc1ccc(Nc2nc(NS(=O)(=O)c3cc(C(=O)Nc4ccc(Cl)cc4)c(Cl)cc3S)n[nH]2)cc1 | > 100 µM | > 100 µM | > 100 µM | > 100 µM | > 100 µM | > 100 µM | > 100 µM | > 100 µM | > 100 µM | > 100 µM | > 100 µM |  |  |  |  |  |  |  |  | 
O=C1OCC/C1=C/c1ccc(N=Nc2c(O)ccc3ccccc23)cc1 | 58 µM | 54.7 µM | 22.3 µM |  | 44.8 µM | 44.7 µM | 47.8 µM | 45.1 µM | 39.2 µM | 40.3 µM | 56.5 µM |  |  |  |  |  |  |  |  | 
COc1cc2c(cc1OC)C(C)N(C)c1c-2c(OC(C)=O)cc2cc(OC)c(OC)cc12 (stereo not drawn) | 20 µM |  | 34.1 µM | 39.8 µM | 36.7 µM | > 100 µM | 53.4 µM | > 46.2 µM | > 68.5 µM | 24.2 µM | 39.3 µM |  |  |  |  |  |  |  |  | 
CCOP(=O)(CN=C(c1ccccc1)c1ccccc1)OCC | > 100 µM | > 100 µM |  | > 100 µM | > 100 µM |  | > 100 µM | > 100 µM | > 100 µM | > 100 µM |  |  |  |  |  |  |  |  |  | 
NC(=S)N/N=C1\c2ccccc2CCC1CCC1(O)CCc2ccccc2C1=O (stereo not drawn) | 36.7 µM | > 100 µM | > 100 µM | 44.3 µM | 87 µM | > 100 µM | 59 µM | 39.8 µM | > 100 µM | 33.3 µM | 31.7 µM |  |  |  |  |  |  |  |  | 
CC1OC1C(=O)C1(O)C(C)C(O)C23OC2(C(O)c2c(O)cccc2C3=O)C1O (stereo not drawn) | 0.223 µM | 0.775 µM | 1.04 µM | 0.629 µM | 0.543 µM | 0.525 µM | 0.693 µM | 0.343 µM | 1.09 µM | 0.714 µM | 0.646 µM |  |  |  |  |  |  |  |  | 
